Results from patent publication US10813920B2, “Drug for treating corneal endothelium by promoting cell proliferation or inhibiting cell damage” (THE DOSHISHA, priority 2013, dated 2020).
Counter-ions that a name gives are not always drawn. Residues, ends and D or L forms follow the SMILES beside them. *: point of attachment. Cbz = O=C(OCc1ccccc1)*; CH2F = FC*

How the values were obtained:
[1] = system: cultured monkey corneal endothelial cells; test: p38 MAPK activation induces apoptosis: Western blot in cultured monkey corneal endothelial cells; format: cell-based; conditions: Western blot after 9 hours
Method: 1×10^5 cultured monkey corneal endothelial cells were seeded on a 12-well plate coated with an FNC Coating Mix and cultured for about 5 days until reaching confluence under the condition of 5% CO2 at 37° C. The medium used was Dulbecco's Modified Eagle Medium (Gibco, 12320-032), 10% FBS, 1% Penicillin-Streptomycin (nacalai tesque, 26252-94).
As acclimation treatment, Z-VAD (OMe)-FMK (Wako Pure Chemical Industries, Ltd. 269-02071) was then added at a concentration of 10 μM and the cells were incubated for 16 hours under the condition of 5% CO2 at 37° C. For the Control group and anisomysin group, a solvent of a reagent Dimethyl Sulfoxide (DMSO) (Dimethyl Sulfoxide, Sterile-filtered; nacalai tesque, 13408-64) was added. The medium used was Gibco DMEM, 1% P/S. The cellular supernatant was then removed, and anisomysin (Wako Pure Chemical Industries Ltd., 017-16861) was added to the anisomysin group and the anisomysin+Z-VAD-FMK group at a concentration of 10 μM. 10 μM of Z-VAD was added with anisomysin to the anisomysin+Z-VAD-FMK group. DMSO was added to the groups to which Z-VAD-FMK was not added. The cells were then cultured for 9 hours. The cellular form was observed under a phase difference microscope. A picture was taken after 9 hours.
After 9 hours, cell proteins were collected. The amount of protein expression was compared by Western blot. Anti-caspase 3 antibodies (cell signaling, 9662S), anti-p38 MAPK antibodies (cell signaling, #9212), and anti-pp38 MAPK antibodies (cell signaling, #4631S) were used as the antibodies. Further, anti-GAPDH antibodies (MBL, 3H12) were used as the internal standard.

[2] = water; hydrochloride salt; cited from earlier work

COc1ccc(C[C@H]2NC[C@H](O)[C@@H]2OC(C)=O)cc1 [anisomysin, (2R,3R,4S)-2-[(4-methoxyphenyl)methyl]-3,4-pyrrolidinediol-3-acetate]
Phosphorylation of p38 ([1]; 10 μM): observed | activation due to cleavage of caspase 3 ([1]; 10 μM): observed

COC(=O)C[C@H](NC(=O)[C@H](C)NC(=O)[C@@H](NC(=O)OCc1ccccc1)C(C)C)C(=O)CF [Z-VAD-FMK] (Cbz-Val-Ala-Asp(OMe)-CH2F)
Caspase 3 activation induced by anisomycin ([1]; 10 μM Z-VAD-FMK with 10 μM anisomycin): suppressed

C[S+]([O-])c1ccc(-c2nc(-c3ccncc3)c(-c3ccc(F)cc3)[nH]2)cc1 (stereo not shown) [SB203580 hydrochloride, 4-(4-fluorophenyl)-2-(4-methylsulfinylphenyl)-5-(4-pyridyl)-1H-imidazole]
water solubility [2]: water-soluble
